From patent US10351559B2, “Maleate salts of a B-RAF kinase inhibitor, crystalline forms, methods of preparation, and uses therefore” (BeiGene, Ltd., priority 2015, dated 2019)
Counter-ions that a name gives are not always drawn.

Assays:
aqueous solubility study = format: physicochemical; settings: sesqui-maleate salt
[1] = hygroscopicity (moisture sorption) by DVS; format: physicochemical; settings: exposed to 95% RH, DVS
Description: The free base of Compound 1 was obtained originally as an amorphous solid, which is slightly hygroscopic with 2.2% water gain from 0 to 80% RH. No form transformation was observed after dynamic vapor sorption (DVS).

[2] = long-term stability study; format: physicochemical
[3] = system: ERK phosphorylation in A375 cells; test: cellular phospho-ERK TR-FRET assay; format: cell-based; settings: Homo sapiens, A-375; B-RAF V600E mutant melanoma A375 cells, 1 h treatment
Method: (§1) A375, Sk-Mel-28, HT29, Colo205, A431, and HCC827 cell lines were purchased from American Type Culture Collection. All the cell lines used in the cellular assays were cultured in the designated medium supplemented with 10% fetal bovine serum (FBS, Thermo Scientific), 100 units/mL penicillin (Gibco), 0.1 mg/mL streptomycin (Gibco) and in a humidified 37° C. environment with 5% CO2. Cell lines were reinstated from frozen stocks laid down within three passages from the original cells purchased and passaged no more than 30 times.
(§2) Cellular phospho-ERK and phospho-EGFR were measured using a TR-FRET-based method. Cells were seeded at 3×10^4 per well of a 96-well plate and left to attach for 16 hours. Growth medium was then replaced with 100 μL of medium containing no serum. Cells were then treated with a 10-point titration of compound. After 1 h of compound treatment, 50 μL of lysis buffer (Cisbio) were added to each well. Plates were then incubated at room temperature with shaking for 30 min. A total of 16 μL of cell lysate from each well of a 96-well plate was transferred to a 384-well small volume white plate. Lysate from each well was incubated with 2 μL of Eu3+- or Tb3+-cryptate (donor) labeled anti-ERK or anti-EGFR antibody (Cisbio) and 2 μL of D2 (acceptor) labeled anti-phospho-ERK or anti-phospho-EGFR antibody (Cisbio) for 2 h at room temperature. FRET signals were measured using a PHERAstar FS reader (BMG Labtech). IC50 values for ERK or EGFR phosphorylation was determined using GraphPad Prism software.

[4] = system: ERK phosphorylation in Colo205 cells; test: cellular phospho-ERK TR-FRET assay; format: cell-based; settings: Homo sapiens, COLO 205; B-RAF V600E mutant Colo205 colorectal cancer cells, 1 h treatment
Method: as §1, §2

[5] = system: ERK phosphorylation in HT29 cells; test: cellular phospho-ERK TR-FRET assay; format: cell-based; settings: Homo sapiens, HT-29; B-RAF V600E mutant HT29 colorectal cancer cells, 1 h treatment
Method: as §1, §2

[6] = system: ERK phosphorylation in Sk-Mel-28 cells; test: cellular phospho-ERK TR-FRET assay; format: cell-based; settings: Homo sapiens; B-RAF V600E mutant melanoma Sk-Mel-28 cells, 1 h treatment
Method: as §1, §2

[7] = system: A431 epidermoid carcinoma (EGFR overexpression) xenografts; test: xenograft efficacy study; format: in vivo, BALB/C nude mice; settings: A431 xenografts in nude mice, oral
Method: (§3) Human cancer cells were inoculated subcutaneously in the right axilla region of BALB/C nude mice to generate tumor xenografts. On the day of implantation, the cell culture medium was replaced with fresh medium. Three hours later, the media was removed and the cells were collected and re-suspended in cold (4° C.) PBS prior to inoculation. The right axilla region of each mouse was cleaned with 70% ethanol prior to cell inoculation. Each animal was injected subcutaneously with desired cells in 200 μl of cell suspension in the right front flank via a 26-gauge needle. After implantation tumor volumes were measured twice weekly in two dimensions using a calliper. Tumor volume was calculated using the formula: V=0.5×(a×b^2) where a and b are the long and short diameters of the tumor, respectively.
(§4) For in vivo efficacy studies, when the average tumor size reaches 100˜200 mm^3, animals were assigned into desired number of groups with 6-10 mice per group using a stratified randomization procedure. The groups consisted of a control group (no drug treatment), and different dose levels of Crystalline Form A* of Compound 1 Sesqui-Maleate treatment groups (ranged from 1-20 mg/kg). All doses were based on free-base weight. Drugs were administered by oral gavage once (qd) or twice (bid) daily; dosing frequency depended on the individual case for tumor growth. Treatments were administered by oral gavage (p.o.) in a volume of 10 ml/kg body weight. Body weight was assessed immediately before dosing and the volume dosed was adjusted accordingly. Individual body weights and tumor volumes were determined twice weekly, with mice being monitored daily for clinical signs of toxicity for the duration of the study. Mice were euthanized using carbon dioxide once their tumor volume reached 2000 mm^3, the tumor was ulcerated, or body weight loss exceeded 20%. All group data was analyzed using the t test. If the p value was <0.05, it was considered to be statistically significant.
(§5) Tumor growth inhibition (TGI) was calculated using the following formula: […]

[8] = system: Colo205 colorectal carcinoma (B-RAF V600E mutation) xenografts; test: xenograft efficacy study; format: in vivo, BALB/C nude mice; settings: Colo205 xenografts in nude mice, oral
Method: as §3, §4, §5

[9] = system: HCC827 lung carcinoma (EGFR mutation) xenografts; test: xenograft efficacy study; format: in vivo, BALB/C nude mice; settings: HCC827 xenografts in nude mice, oral
Method: as §3, §4, §5

[10] = system: HT29 colorectal carcinoma (B-RAF V600E mutation) xenografts; test: xenograft efficacy study; format: in vivo, BALB/C nude mice; settings: HT29 xenografts in nude mice, oral
Method: as §3, §4, §5

[11] = system: LOX melanoma (B-RAF V600E mutation) xenografts; test: xenograft efficacy study; format: in vivo, BALB/C nude mice; settings: LOX xenografts in nude mice, oral
Method: as §3, §4, §5

[12] = system: WiDr colorectal carcinoma (B-RAF V600E mutation) xenografts; test: xenograft efficacy study; format: in vivo, BALB/C nude mice; settings: WiDr xenografts in nude mice, oral
Method: as §3, §4, §5

[13] = system: human Calu-6 lung adenocarcinoma (K-RAS mutation) tumors; test: xenograft efficacy study, combination; format: in vivo, BALB/C nude mice; settings: Calu-6 tumors
Method: as §3
For in vivo efficacy studies, when the average tumor size reaches 100˜200 mm^3, animals were assigned into desired number of groups with 6-10 mice per group using a stratified randomization procedure. […] Body weight was assessed immediately before dosing and the volume dosed was adjusted accordingly. Individual body weights and tumor volumes were determined twice weekly, with mice being monitored daily for clinical signs of toxicity for the duration of the study. […] All group data was analyzed using the t test. […]
as §5

[14] = nonclinical toxicity and safety pharmacology program
Method: A comprehensive nonclinical toxicity study program, including 28-day GLP studies in rats and dogs and several investigational studies, was conducted for the evaluation of the preclinical safety of Compound 1 Sesqui-Maleate (Crystalline Form A*). These studies took account the available regulatory guidance for preclinical development of anticancer drugs.

CYP2C8 = CYP2C8 (Homo sapiens, UniProt P10632); test: CYP inhibition; format: in vitro ADME
Chain of CYP2C8 (P10632 whole entry): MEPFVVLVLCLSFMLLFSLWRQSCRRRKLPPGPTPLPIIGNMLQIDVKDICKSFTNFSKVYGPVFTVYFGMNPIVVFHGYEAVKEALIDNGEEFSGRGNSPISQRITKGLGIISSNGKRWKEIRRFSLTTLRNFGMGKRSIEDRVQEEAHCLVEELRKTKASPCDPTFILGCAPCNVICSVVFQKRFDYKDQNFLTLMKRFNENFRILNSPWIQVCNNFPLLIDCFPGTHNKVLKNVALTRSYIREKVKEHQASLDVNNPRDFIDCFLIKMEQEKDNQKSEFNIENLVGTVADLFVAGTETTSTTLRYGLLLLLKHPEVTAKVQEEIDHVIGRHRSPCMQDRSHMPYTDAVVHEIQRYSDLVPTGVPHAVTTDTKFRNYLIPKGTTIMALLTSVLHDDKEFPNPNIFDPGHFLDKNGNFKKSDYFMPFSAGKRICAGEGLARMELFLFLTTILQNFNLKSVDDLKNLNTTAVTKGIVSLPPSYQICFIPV

SMILES: O=C1CCc2c(Oc3ccc4c(c3)[C@@H]3[C@H](O4)[C@H]3c3nc4ccc(C(F)(F)F)cc4[nH]3)ccnc2N1 [5-(((1R,1aS,6bR)-1-(6-(trifluoromethyl)-1H-benzo[d]imidazol-2-yl)-1a,6b-dihydro-1H-cyclopropa[b]benzofuran-5-yl)oxy)-3,4-dihydro-1,8-naphthyridin-2(1H)-one sesqui-maleate salt]
- solubility in water (aqueous solubility study): slightly soluble in water
- aqueous solubility (aqueous solubility study; water, LOQ at 0.001 mg/mL): 0.020 mg/mL
- water uptake [1]: 0.1801%
- purity after stability study ([2]; 24 month at 25 C/75% RH): 98.5%
- crystal form and optical purity changes ([2]; 25° C./60% RH up to 18 months and 40° C./75% RH up to 6 months): no crystal form and optical purity changes were observed
- Assay w/w ([2]; T0, 25° C./60% RH study): 99.1%
- Assay w/w ([2]; T0, 40° C./75% RH study): 99.1%
- Assay w/w ([2]; T6: 6 months at 40° C./75% RH): 98.9%
- Assay w/w ([2]; T18: 18 months at 25° C./60% RH): 98.8%
- IC50 [3]: 32 nM
- IC50 [4]: 53 nM
- IC50 [5]: 103 nM
- IC50 [6]: 77 nM
- antitumor activity [7]: marked antitumor activity
- antitumor activity [8]: marked antitumor activity
- antitumor activity [9]: marked antitumor activity
- antitumor activity [10]: marked antitumor activity
- antitumor activity [11]: marked antitumor activity
- antitumor activity [12]: marked antitumor activity
- antitumor activity in combination ([13]; combined with docetaxel): remarkable antitumor activity
- antitumor activity in combination ([13]; combined with the MEK inhibitor selumetinib (AZD6244)): remarkable antitumor activity
- teratogenic, mutagenic and reproductive toxicity ([14]; additional toxicity testing): no teratogenic, mutagenic and reproductive toxicity
- toxicology and safety pharmacology profile ([14]; incl. 28-day GLP studies in rats and dogs): favorable toxicology and safety pharmacology profile
- effect on autonomic nervous system activity or the central nervous system ([14]; safety pharmacological test): no effect
- effect on respiration, blood pressure and circulatory function ([14]; safety pharmacological test): no effect
- IC50 (CYP2C8): 1030 nM
